Entries after “also recorded” stand apart in the source; their conditions may differ. Where no end group is shown, it is not given here.
Legend:
[1] = Tissue distribution of Cy5.5-labeled peptides by optical imaging; assay type: in vivo, CD1 mice
Description: SorC13 and SorC27 were labeled with the near-infrared probe, Cy5.5. SorC13 was labeled at lysine-1 and lysine-8 with the infrared fluorescent probe cy5.5 through reaction with Cy5.5 NHS ester-activated process. SorC27 was labeled at the single cysteine thiol with Cy5.5 maleamide-activated reaction. The labeled peptides were purified with a combination of size exclusion chromatography and HPLC. The label, Cy5.5, fluoresces in the infra-red region after excitation with a scanning laser. The low energy laser is able to penetrate the animal to about 1 cm and, thus, by scanning prone and supine positions, the presence of the tagged peptides can be quantified in three dimensions.
Cy5.5-labeled peptides were intravenously injected into CD1 mice (4 for each compound) at 100 ug per animal in 100 uL, and animals were imaged live using an optical imaging system, Optix eXplorer (GE Healthcare Systems) at different time points (30 min, 90 min, 4 h). […] The bio-distribution of the labeled peptides in different organs and tissues were visualized and relatively quantified by optical imaging analysis. This protocol allows for visualization of the location of the labeled peptides and how the location changes over time. […] Nodes that accumulated the labeled peptides are indicated by line 1 (superfacial cervical nodes), line 4 (axillary nodes), line 5 (brachial nodes), line 8 (mesenteric nodes) and line 9 (inguinal nodes). FIGS. 8, 9 and 10 show the amounts of labeled peptides in various organs ex vivo.

[2] = Repeated dose toxicity study; assay type: in vivo, NOD/SCID mice
Experimental: In order to investigate repeated dose toxicity, SorC27 at 400 mg/kg formulated in saline was injected (i.p.) into NOD/SCID mice every day for 12 days. The animals were observed cage-side each day and examined at the end of the experimental period.

[3] = Single dose acute intravenous bolus toxicity study with 5-day observation; assay type: in vivo, CD-1 mice
Experimental: A single dose acute intravenous bolus injection toxicity study followed by a 5-day observation period in CD-1 mice was performed as described below. Three doses of each of SorC13 and SorC27 were used (10, 100 and 500 mg/Kg). Daily cage-side exams for 5 days with hourly exams for the first 4 hrs post injection. As part of the analysis the following assessments were made: body weights prior to dosing and at termination; all animals were necropsied (including preparation of bone marrow smears); organ weights were taken of all animals.
After in vivo i.v. injection into CD1 mice, SorC13 caused a small spike (approximately 25%) in blood pressure in the first 15 min which disappeared by 1 hour.

[4] = Degradation rate in human plasma (HPLC); assay type: in vitro ADME
Experimental: Rat plasma was obtained from blood taken from sacrificed rats (Sprague-Dawley) and placed into heparinized glass vials to prevent clotting. Whole blood was centrifuged at 8000×g for 5 minutes to spin down the cells leaving the plasma as supernatant. Human whole blood samples from healthy humans were taken in lithium-heparinized vacuum tubes. The samples were placed into 2.0 mL microcentrifuge tubes and centrifuged at 8000×g for 5 min. The plasma was carefully separated from red blood cells and used immediately.
Determination of degradation rate of the C-peptides was done by measuring, with the HPLC protocol, the amount of either SorC13 or SorC27 in dosed plasma samples, after time. Sample tubes (500 uL) containing 2 uL of 2 mM Pefabloc were previously prepared for sample delivery SorC13 (1.0 mg) or SorC27 (2.0 mg) were dissolved in 1.0 mL of fresh plasma (37° C.) and placed in an incubating water bath at 37° C. A sample (100 uL) was taken immediately and quenched in sample tubes containing 2 uL of 2 mM Pefabloc, mixed vigorously and immediately frozen at −80° C. This initial sample represented time zero for the run. At successive time intervals of 5 minutes, 100 uL samples were withdrawn, quenched in Pefabloc, mixed, and frozen at −80° C. until analysis.
The rat plasma degradation rate was determined for the plasma from three different rats, while the rate of degradation in human plasma used six separate plasma samples. The data used were the means (±SEM) and were fitted to a simple one-phase exponential decay model to determine the half-life of the two peptides. This also allowed the calculation of a static degradation rate. FIG. 11 is illustrative of the rate at which SorC27 was degraded in human plasma.

[5] = tested on: human SKOV3 ovarian cancer tumors; assay: SKOV3 ovarian cancer xenograft, SorC27 versus saline and CAT (Example 14); assay type: in vivo, NOD/SCID mice
Experimental: Tumor volumes (V) are calculated by caliper measurement using standard measurements of the width (W), length (L) and thickness (T) of tumors. Animals are randomized into treatment groups so that the median tumor volumes of each group were similar at the start of dosing. % T/C values, as a measure of efficacy, are determined where C refers to volume of control or untreated tumor, and T refers to volume of treated tumor.
SKOV3 cells were obtained from ATCC, cultured and expanded to suitable numbers to establish xenografts in mice and then formulated into gel pellets and grafted under the renal capsule of surrogate NOD/SCID mice in order to establish the tumors. Tumors are then permitted to develop in vivo until the majority reach 100-200 mm^3 in tumor volume, which typically requires 1-2 weeks following implantation. Once xenografts are established, they are harvested and cut into multiple uniform pieces. Sixteen to eighteen pieces were implanted subcutaneously into each NOD/SCID mouse for experimentation. After 2 days, the animals are treated with either the test peptides or CAT or combinations.
Mice implanted with SKOV3 cells as detailed above received saline (control), SorC27 (400 mg/kg), by i.p. injection every day for 12 days or CAT injections one every week. The tumor volume and body weights were measured every day. As well, general health of the animals was monitored every day. The results shown in FIG. 12 are presented in terms of tumor load normalized to body weight. […] By Day 12 there was no statistically significant difference between CAT and SorC27 at this dose.

[6] = 400 mg/kg, daily i.p. injection for 12 days
[7] = single i.v. 10, 100 and 500 mg/kg
[8] = 400 mg/kg i.p. every day for 12 days

Sequence: EGKLSSNDTEGGLCKEFLHPSKVDLPR [SorC27]
- detectable in tissues after perfusion ([1]; Cy5.5-tagged peptide, 24 hours): still detectable
- tissue localization ([1]; Cy5.5-tagged peptide, i.v. 100 ug): localize predominantly in lymph nodes, lung, liver and kidney
- tissues with highest percent uptake (of total fluorescence) after perfusion ([1]; Cy5.5 labeled, 4 and 24 hours after i.v. injection): liver, lung and kidney
- toxicity of multiple dose ([2]; 400 mg/kg i.p. each day for 12 days): no indication of toxicity; also recorded: no toxic effect, weight loss or change in organs on necropsy
- Repeated dose in NOD/SCID mice: body weight [2, 6]: No loss of body weight
- Repeated dose in NOD/SCID mice: toxic effects [2, 6]: no toxic effects noted
- Maximum Tolerated Dose in CD-1 mice by single i.v. dose ([3]; 10, 100 and 500 mg/kg doses): No toxic effects
- adverse events over 5-day post-injection observation period [3, 7]: no adverse events
- necropsy changes in major organ systems [3, 7]: no significant changes in all major organ systems
- binding to plasma proteins ([4]; human plasma): doesn't bind to
- half-life ([4]; human, plasma, 37° C.): 20 min
- % T/C ratio (mean tumour volume of treated/mean tumour volume of control) [5, 8]: 39.9%
- decrease in tumour growth [5, 8]: 60.1%
- tumor volume normalized to body weight versus control saline ([5]; over 12 days, SorC27 400 mg/kg i.p. daily, CAT once every week, 400 mg/kg): greatly reduced tumor volume; also recorded: reduced the tumor volume significantly

— patent US10058587B2, “Peptide composition for cancer treatment by inhibiting TRPV6 calcium channel activity” (priority 2008, dated 2018)
